Source: ChEMBL document CHEMBL1151013, “The chemical evolution of N,N-dimethyl-2-[5-(1,2,4-triazol-4-yl)-1H-indol-3-yl]ethylamine (L-741,604) and analogues: Potent and selective agonists for 5-HT1D receptors” (Bioorg Med Chem Lett, 1996)

How the values were obtained:
[1] = Plasma clearance in rat was determined; type: ADME, organism-based; conditions: read-out: Clp
[2] = species on record: Rattus norvegicus; assay: Maximum fall in carotid flow in rat; type: organism-based; conditions: in vivo
[3] = Half-life in rat plasma was determined; type: ADME, organism-based
[4] = species on record: Canis familiaris; assay: The plasma concentration producing half maximal fall in carotid flow in dogs; type: functional, organism-based; conditions: Canis lupus familiaris
[5] = Maximum concentration in rat plasma was determined; type: ADME, organism-based
[6] = Time required to reach maximum concentration in rat plasma; type: ADME, organism-based
[7] = species on record: Rattus norvegicus; assay: Inhibition of extravation produced in the dura meter by electrical stimulatio of trigeminal ganglion in rat; type: functional, organism-based
[8] = species on record: Oryctolagus cuniculus; assay: Compound was tested for agonist potency from plots of percentage 5-HT (1 uM) response against concentration of the agonist in white rabbit saphenous vein; type: functional, organism-based

SMILES	clearance [1] [L/h/kg]	Carotid Flow Decrease [2] [%]	half-life [3] [h]	IC50 [4] [µM]	Cmax [5] [µg/mL]	Tmax [6] [h]	IC50 [7] [µM]	EC50 [8] [µM]
CNS(=O)(=O)Cc1ccc2[nH]cc(CCN(C)C)c2c1	4.14	44	1.1	0.0486	0.074	4	–	–
CN(C)CCc1c[nH]c2ccc(-n3cnnc3)cc12	2.22	27	1.3	–	0.083	1	0.013	0.032
CN1CCC(c2c[nH]c3ccc(-n4cnnc4)cc23)CC1	2.88	20	2	0.0069	0.053	3	0.069	0.039
CN(C)CCc1c[nH]c2ccc(-n3cncn3)cc12	–	–	–	–	–	–	–	0.062
CN(C)CCc1c[nH]c2ccc(Cn3cncn3)cc12 [RIZATRIPTAN]	4.74	76	0.8	–	0.271	0.75	–	–
